Results reported in US11331333B2, “Treatment of aberrant fibroblast proliferation” (Georg August Universitaet Goettingen Stiftung Oeffentlichen …, priority 2019, dated 2022).

What was measured:
Assay type in all cases: cell-based, mouse
[1] = test system: primary murine fibroblast cultures overexpressing EYA1C; experiment: γH2A.X^pY142 labelling after NCS exposure in fibroblasts overexpressing EYA1C; conditions: 60 minutes after NCS exposure
Text: (§1) FIGS. 12A-12B show the effect of the established EYA1 γH2A.X^pY142 tyrosine phosphatase inhibitors Na3VO4 (blocking tyrosine phosphatase activity) and caffeine (blocking ATM-dependent recruitment of EYA1 towards γH2A.X) on γH2A.X^pY142 dephosphorylation and fibroblast accumulation. FIG. 12A depicts results of an analysis of photomicrographs of primary murine fibroblast cultures transfected with control plasmids (vector) and plasmids overexpressing EYA1A (EYA1A^oe) or EYA1C (EYA1C^oe). Cells were exposed to either Na3VO4 or caffeine and labelled for 7H2A.X^pY142 60 minutes after NCS exposure (n=100 nuclei each, data are presented as means±s.d., **p<0.01, # no significance, values of p were calculated using Student's t test comparing indicated groups). FIG. 12B depicts results of an analysis of proliferative activity of primary murine fibroblasts transfected with indicated constructs, seeded at a density of 60,000 per well. Proliferative activity was determined at indicated time points after exposure to Na3VO4 or caffeine (n=3 independent replicates, data are presented as means±s.d., ***p<0.001, ****p<0.0001, values of p were calculated using one-way ANOVA with Bonferroni post-hoc analysis comparing control and Na3VO4^− or caffeine-treated cultures overexpressing EYA1A). […]

[2] = test system: primary murine fibroblast cultures overexpressing EYA1A; experiment: γH2A.X^pY142 labelling after NCS exposure in fibroblasts overexpressing EYA1A; conditions: 60 minutes after NCS exposure
Text: as §1

[3] = test system: primary murine fibroblasts overexpressing EYA1A; experiment: Proliferative activity of primary murine fibroblasts overexpressing EYA1A; conditions: seeded at 60,000 per well
Text: FIGS. 12A-12B show the effect of the established EYA1 γH2A.X^[…] tyrosine phosphatase inhibitors Na3VO4 (blocking tyrosine phosphatase activity) and caffeine (blocking ATM-dependent recruitment of EYA1 towards γH2A.X) on γH2A.X^[…] dephosphorylation and fibroblast accumulation. FIG. 12A depicts results of an analysis of photomicrographs of primary murine fibroblast cultures transfected with control plasmids (vector) and plasmids overexpressing […]) or EYA1C (EYA1C^oe). […] FIG. 12B depicts results of an analysis of proliferative activity of primary murine fibroblasts transfected with indicated constructs, seeded at a density of 60,000 per well.

SMILES | γH2A.X^pY142 in EYA1C overexpressing cells [1] | EYA1A-induced premature γH2A.X^pY142 dephosphorylation [2] | EYA1A-induced fibroblast accumulation [3]
[Na+].[Na+].[Na+].[O]=[V]([O-])([O-])[O-] [Na3VO4, sodium orthovanadate] | neither Na3VO4 nor caffeine affected | reversed | reversed
Cn1c(=O)c2c(ncn2C)n(C)c1=O [caffeine] | neither Na3VO4 nor caffeine affected | reversed | reversed
